Measured values: patent US8933019B2, “Antiviral cell-penetrating peptides” (priority 2008, dated 2015)
Where two headings read alike, the source gives them in different places. Bridge positions count the residues as written; N and C are the ends. Square brackets hold non-standard residues; d marks the D form. Peptide text beside a SMILES is read from it. S5 = C=CCCC[C@](C)(N)C(=O)O

Key:
HIV-1 RU570 = assay: Inhibition of primary HIV-1 isolate, p24 ELISA, PBMC; type: cell-based; settings: subtype G, coreceptor R5, read-out: IC50 (μM ± SD), HIV-1 RU570
Description: (§1) The inhibitory activity of peptides on infection by primary HIV-1 isolates was determined as previously described (Jiang et al., Antimicrob. Agents Chemother. 48:4349-4359, 2004). Peripheral blood mononuclear cells (PBMCs) were isolated from the blood of healthy donors at the New York Blood Center by standard density gradient centrifugation using Histopaque-1077 (Sigma-Aldrich). The cells were cultured at 37° C. for 2 hr. Nonadherent cells were collected and resuspended at 5×10^6 cells/ml RPMI-1640 medium containing 10% FBS, 5 μg/ml PHA, and 100 U/ml IL-2 (Sigma-Aldrich), followed by incubation at 37° C. for 3 days. The PHA-stimulated cells (5×10^4 cells/well) were infected with primary HIV-1 isolates at 500 TCID50 (0.01 MOI) in the absence or presence of peptide inhibitor at graded concentrations. Culture media were changed every 3 days and replaced with fresh media containing freshly prepared inhibitor. The supernatants were collected 7 days post-infection and tested for p24 antigen by ELISA (FIG. 6). The percent inhibition of p24 production, IC50 and IC90 values were calculated by the GraphPad Prism software (GraphPad Software Inc.).
(§2) NYAD-201, NYAD-202 and NYAD-203 were also tested against a set of primary HIV-1 isolates in PBMC representing mostly group M and one from group O with diverse coreceptor usage. […] The inhibitory activities of the peptides against this diverse range of primary isolates were similar, indicating its effectiveness against a wide range of HIV-1 isolates.

HIV-1 BCF02 = assay: as above; type: cell-based; settings: (Group 0), coreceptor R5, read-out: IC50 (μM ± SD), HIV-1 BCF02
Description: as §1, §2

HIV-1 93BR020 = assay: as above; type: cell-based; settings: subtype F, coreceptor R5X4, read-out: IC50 (μM ± SD), HIV-1 93BR020
Description: as §1, §2

HIV-1 93IN101 = assay: as above; type: cell-based; settings: subtype C, coreceptor R5, read-out: IC50 (μM ± SD), HIV-1 93IN101
Description: as §1, §2

HIV-1 92UG029 = assay: as above; type: cell-based; settings: subtype A, coreceptor X4, read-out: IC50 (μM ± SD), HIV-1 92UG029
Description: as §1, §2

HIV-1 98CN009 = assay: as above; type: cell-based; settings: subtype C, coreceptor R5, read-out: IC50 (μM ± SD), HIV-1 98CN009
Description: as §1, §2

HIV-1 92US657 = assay: as above; type: cell-based; settings: subtype B, coreceptor R5, read-out: IC50 (μM ± SD), HIV-1 92US657
Description: as §1, §2

HIV-1 93RW024 = assay: as above; type: cell-based; settings: subtype A, coreceptor R5X4, read-out: IC50 (μM ± SD), HIV-1 93RW024
Description: as §1, §2

HIV-1 CMU02 = assay: as above; type: cell-based; settings: subtype EA, coreceptor X4, read-out: IC50 (μM ± SD), HIV-1 CMU02
Description: as §1, §2

Jurkat cells = assay: Cytotoxicity, LDH leakage, Jurkat cells; type: cell-based; settings: 30 min, 2 hr and 4 hr of exposure
Description: (§3) Cytotoxicity was also evaluated in Jurkat cells using a Promega LDH leakage detection kit. Jurkat cells were plated at 10^4 cells/well in a volume of 200 μl. The test was performed after 30 min, 2 hr and 4 hr of exposure to the NYAD-201, NYAD-202 and NYAD-203 compounds.

[1] = Solubility, observation in the Jurkat cytotoxicity test; type: physicochemical
Description: as §3

HIV-1 89.6 = type: cell-based; settings: laboratory strain, subtype B, PBMC, coreceptor R5X4; read-out: IC50 (μM ± SD), HIV-1 89.6
Description: as §1
(§4) In addition, NYAD-201, NYAD-202 and NYAD-203 were also tested using several laboratory-adapted and primary isolates in MT-2 cells and PBMC (peripheral blood mononuclear cells), respectively. The inhibition of p24 production in MT-2 cells by NYAD-201 and its analogs were measured over a range of concentrations and the concentration required to inhibit 50% (IC50) of the p24 production was calculated. […] NYAD-201 and its analogs inhibited the laboratory strains with low μM potency (IC50˜2-8 μM), and both R5- and X4-tropic viruses were inhibited with similar potency.

HIV-1 BaL = type: cell-based; settings: laboratory strain, subtype B, PBMC, coreceptor R5; read-out: IC50 (μM ± SD), HIV-1 BaL
Description: as §1, §4

[2] = Cytotoxicity, XTT method, MT-2 cells; type: cell-based, human; settings: human, read-out: CC50 (μM) ± SD, cytotoxicity in MT-2 cells
Description: (§5) Cytotoxicity of peptides in MT-2 cells and PBMC was measured by the XTT [(sodium 3′-(1-(phenylamino)-carbonyl)-3,4-tetrazolium-bis(4-methoxy-6-nitro) bezenesulfonic acid hydrate)] method as previously described (Jiang et al., 2004). Briefly, for MT-2 cells, 100 μl of a peptide at graded concentrations was added to an equal volume of cells (1×10^5 cells/ml) in 96-well plates followed by incubation at 37° C. for 4 days, which ran parallel to the neutralization assay in MT-2 (except medium was added instead of virus). In the case of PBMC, 5×10^5 cells/ml were used and the cytotoxicity was measured after 7 days. After addition of XTT (PolySciences, Inc.), the soluble intracellular formazan was quantitated colorimetrically at 450 nm 4 hr later with a reference at 620 nm. The percent of cytotoxicity and the CC50 values were calculated as above (Table 2 and Table 3).

HIV-1 SF2 = settings: read-out: IC50 (μM ± SD), HIV-1 SF2; laboratory strain, subtype B, MT-2, coreceptor R5X4
Description: (§6) The inhibitory activity of NYAD-201, and related stapled peptides on infection by laboratory-adapted HIV-1 strains was determined as previously described (Jiang et al. J Exp. Med 174:1557-1563, 1991) with minor modifications. Azidothymidine (AZT) was used as a positive control in the infectivity assays. In brief, 1×10^4 MT-2 cells were infected with HIV-1 at 100 TCID50 (50% tissue culture infective dose) (0.01 MOI [multiplicity of infection]) in 200 μl RPMI 1640 medium containing 10% FBS in the presence or absence of peptides at graded concentrations overnight. The culture supernatants were then removed and fresh media containing freshly prepared test peptide were added. On the fourth day post-infection, 100 μl of culture supernatants were collected from each well, mixed with equal volume of 5% Triton X-100 and tested for p24 antigen by ELISA.
(§7) In addition, NYAD-201, NYAD-202 and NYAD-203 were also tested using several laboratory-adapted and primary isolates in MT-2 cells and PBMC (peripheral blood mononuclear cells), respectively.

HIV-1 MN = settings: read-out: IC50 (μM ± SD), HIV-1 MN; laboratory strain, subtype B, MT-2, coreceptor X4
Description: as §6, §7

HIV-1 RF = settings: read-out: IC50 (μM ± SD), HIV-1 RF; laboratory strain, subtype B, MT-2, coreceptor X4
Description: as §6, §7

HIV-1 AZT-R = settings: read-out: IC50 (μM ± SD), HIV-1 AZT-R; RT-resistant isolate, subtype B, MT-2, coreceptor X4
Description: as §6, §7

HIV-1RF/L-323-12-3 = settings: read-out: IC50 (μM ± SD), HIV-1RF/L-323-12-3; PR-resistant isolate, subtype B, MT-2, coreceptor X4
Description: as §6, §7

HIV-1 IIIB = test system: HIV-1 IIIB
Description: as §6, §7

[3] = Cytotoxicity, XTT method, PBMC; type: cell-based; settings: human
Description: as §5

CSCC[C@@H]1NC(=O)[C@H](Cc2c[nH]c3ccccc23)NC(=O)[C@@](C)(NC(=O)[C@H](CCCCN)NC(=O)[C@@H](NC(=O)[C@H](C)NC(=O)[C@H](CCC(N)=O)NC(=O)[C@H](C)N)C(C)C)CCCC=CCCC[C@@](C)(C(=O)N[C@H](C(=O)N[C@@H](CC(C)C)C(=O)N[C@@H](CC(C)C)C(=O)N[C@H](C(=O)N[C@@H](C)C(N)=O)C(C)C)[C@@H](C)O)NC(=O)[C@H]([C@@H](C)O)NC1=O [NYAD-202, AQAVKXWMTXTLLVA] (H-AQAVK[S5]WMT[S5]TLLVA-NH2; staple 6-10)
IC50 (HIV-1 RU570): 6.34 ± 2.22 µM | IC50 (HIV-1 BCF02): 6.2 ± 1.2 µM | IC50 (HIV-1 93BR020): 2.51 ± 0.43 µM | IC50 (HIV-1 93IN101): 5.53 ± 0.39 µM | IC50 (HIV-1 92UG029): 3.97 ± 0.47 µM | IC50 (HIV-1 98CN009): 4.08 ± 0.92 µM | IC50 (HIV-1 92US657): 3.61 ± 0.57 µM | IC50 (HIV-1 93RW024): 3.71 ± 0.19 µM | IC50 (HIV-1 CMU02): 4.2 ± 0.01 µM | Cytotoxicity in Jurkat cells (LDH leakage) (Jurkat cells): did not demonstrate toxicity | Solubility [1]: not very soluble | IC50 (HIV-1 89.6): 3.47 ± 0.22 µM | IC50 (HIV-1 BaL): 2.23 ± 0.44 µM | CC50 at 4 days [2]: 30.2 ± 4.32 µM | IC50 (HIV-1 SF2): 4.48 ± 0.84 µM | IC50 (HIV-1 MN): 2.47 ± 0.71 µM | IC50 (HIV-1 RF): 2.64 ± 0.39 µM | IC50 (HIV-1 AZT-R): 4.53 ± 1.19 µM | IC50 (HIV-1RF/L-323-12-3): 3.5 ± 0.6 µM | IC50 (HIV-1 IIIB; read-out: IC50 (μM ± SD), HIV-1 IIIB, laboratory strain, subtype B, MT-2, coreceptor X4): 2.36 ± 0.33 µM | IC50 (HIV-1 IIIB; read-out: IC50 (μM) ± SD, antiviral activity against HIV-1 IIIB, MT-2 cells, p24 production, fourth day post-infection): 2.36 ± 0.33 µM | CC50 at 7 days [3]: > 116 µM
